Laboratory results published in patent publication US12570617B2 (Kyungpook National University Industry-Academic Cooperation …, priority 2020, dated 2026).

What was measured:
[1] = biological target: T1, ghrelin receptor (Homo sapiens, UniProt Q92847); assay: Intracellular calcium influx in HEK293 cells overexpressing a ghrelin receptor; assay type: cell-based; set-up: host or cells: HEK293 (ATCC); conditions: read-out: EC50, concentration capable of inducing 50% intracellular calcium influx
Description: Human embryonic kidney 293 (HEK293) cells were purchased from ATCC and cultured in a DMEM medium comprising 10% FBS at 37° C. and in 5% CO2.
After treating the cells with 100 ul of a wash buffer, fluorescently labeled intracellular calcium was imaged at an excitation wavelength of 485 nm and an emission wavelength of 520 nm for 1 minute at a shutter interval of 10 seconds under a laser scanning confocal microscope equipped with a temperature and humidity control equipment. […] Intracellular calcium fluorescence intensity by treatment with compounds was quantified by calculating same based on the fluorescence intensity when not treated with compounds.
Target sequence in this assay (Q92847 whole entry): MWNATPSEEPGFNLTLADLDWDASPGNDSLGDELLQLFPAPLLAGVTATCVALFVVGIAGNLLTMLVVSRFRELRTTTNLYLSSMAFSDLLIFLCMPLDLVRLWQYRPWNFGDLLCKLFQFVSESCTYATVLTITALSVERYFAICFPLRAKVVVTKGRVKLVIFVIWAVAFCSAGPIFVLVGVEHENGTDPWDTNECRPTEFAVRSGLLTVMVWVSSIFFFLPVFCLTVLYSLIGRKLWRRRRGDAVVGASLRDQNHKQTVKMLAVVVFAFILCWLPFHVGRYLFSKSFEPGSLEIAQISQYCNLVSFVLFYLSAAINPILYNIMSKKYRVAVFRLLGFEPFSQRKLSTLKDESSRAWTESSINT

[2] = system: 170 G protein-coupled receptors; assay: G protein coupled receptor agonist and antagonist analysis, panel of 170 receptors (Eurofins Discovery); assay type: cell-based; set-up: dose or concentration left out as unconfirmed; conditions: alone (agonist effect) or together with ligands for each receptor (antagonist effect)
Description: (§1) The efficacy of triazole compounds […] as agonists and antagonists for a total of 170 types of G protein-coupled receptors was performed by Eurofins Discovery.
(§2) The family of G protein-coupled receptors comprises many types of receptors comprising a ghrelin receptor. It was checked whether or not the triazole compounds have efficacy as agonists or antagonists of different types of G protein-coupled receptors.

[3] = system: postoperative ileus (POI) mouse model; assay: Delayed gastric emptying in postoperative ileus (POI) mouse model; assay type: in vivo; conditions: POI mice, oral 10, 20, 30 mg/kg 20 hours after POI surgery
Description: (§3) Mice aged 6-8 weeks were fasted for one day and then anesthetized with a mixture of ketamine and xylazine. The abdomen and peritoneum were then incised, and the small intestine was exposed on a sterile gauze pad. Manipulation was performed from the duodenum to the cecum for 5 minutes by using a sterile cotton swab. After surgery, the abdomen was sutured and the mice were allowed to recover for 4 hours in a cage maintained at 32 degrees.
Triazole compounds (10 mg/kg, 20 mg/kg and 30 mg/kg) were orally administered 20 hours after POI surgery. […] After 30 minutes, the stomach of the mouse was removed and put into a 0.1N NaOH 2 ml solution to homogenize same. 3 ml of 0.1N NaOH solution was added and centrifuged at 3000 rpm at 4 degrees for 10 minutes. After adding […] of 20% trichloroacetic acid to the supernatant, the mixture was centrifuged at 3000 rpm at 4 degrees for 10 minutes. […] The percentage of the gastric emptying delay was calculated by (1−(absorbance of test sample)/(baseline control absorbance)×100.

[4] = system: postoperative ileus (POI) mouse model; assay: Colon transit time of feces in postoperative ileus (POI) mouse model; assay type: in vivo; conditions: POI mice; for colon transit time of feces: oral 30 mg/kg 4 hours after POI surgery; for colon transit time of feces / feed intake: vs PBS; for body weight / feed intake: 24 hours
Description: as §3
To evaluate the colon transit time of feces, 200 ul of trypan blue dye was injected into the proximal colon before suturing after POI surgery. A triazole compound (30 mg/kg) was orally administered 4 hours after POI surgery. The mouse was transferred to a metabolic cage, and the weighed feed was administered thereinto, and the time at which the first feces stained with trypan blue appeared was measured for 24 hours. At the 24th hour, the number and weight of feces were measured, and the weight of the consumed feed and the mouse's body weight were measured.

[5] = system: cancer cachexia mouse model; assay: Cancer cachexia mouse model (CT26): grip test, Rota-rod test, cancer size, body weight, feed intake, fat and muscle weight; assay type: in vivo; conditions: cancer cachexia mice; for body weight / cancer size / muscle mass / subcutaneous fat weight / total fat weight / visceral fat weight / daily feed intake: oral 10 mg/kg daily; for muscle mass / subcutaneous fat weight / total fat weight / visceral fat weight: 20th day
Description: Cultured 1×10^6 cells were subcutaneously injected into the right side of the abdomen of 10-week-old mice. The size of the cancer grown in the right abdomen, body weight, and feed intake were measured once every time after cell injection, and 10 mg/kg of a triazole compound was orally administered daily from the 9th day. On the 18th day of cancer cell injection, each of the grip test and Rota-rod test for evaluating the muscle function was performed for 1 day. On the 20th day, subcutaneous fat, visceral fat and muscle (femur, calf) of the mouse were separated and weighed.
For the evaluation of muscle function, the grip test was performed by holding the mouse by having the mouse hold the metal grid attached to the grip strength meter, holding the tail of the mouse, and pulling it from behind horizontally. The force applied to the metal grid immediately before losing the grip was recorded in the measuring instrument as the maximum tension in g, and the entire process was performed 9 times per subject to record the average value. In the Rota-rod test (Ugo Basile, Comerio, VA, Italy), Rota-rod exercise was performed at least three times at a rotational speed of 4 rpm by using a machine equipped with a rod with the diameter of 3 cm appropriately processed to provide grip to measure the endurance time of the tested animals in seconds and record the average value. Each Rota-rod behavior test was not to exceed 5 minutes per time.

[6] = biological target: T1, ghrelin receptor; assay: G protein coupled receptor agonist analysis (Eurofins Discovery), ghrelin receptor; assay type: cell-based; set-up: Eurofins Discovery; dose or concentration left out as unconfirmed; conditions: compound alone (agonist effect)
Description: as §1, §2
Target sequence in this assay (Q92847 whole entry, species assumed): as the sequence (Q92847 whole entry) above

## CCCCCCCCCCCCn1cc(C(N)(CO)CO)nn1 [KARI001, 2-amino-2-(1-dodecyl-1H-1,2,3-triazol-4-yl)propane-1,3-diol]
[1]
  EC50: 128 nM

## CCCCCCCCCn1cc(C(N)(CO)CO)nn1 [KARI201, 2-amino-2-(1-nonyl-1H-1,2,3-triazol-4-yl)propane-1,3-diol]
[2]
  specificity among 170 G protein-coupled receptors (agonist or antagonist efficacy): ghrelin receptor-specific agonist
[3]
  delayed gastric emptying: significant improvement
[4]
  colon transit time of feces: significantly reduced
[4]; oral 30 mg/kg
  body weight: no change
  feed intake: increased
[4]; oral 30 mg/kg, at the 24th hour
  number and weight of feces: increased
[5]
  body weight: did not affect
  cancer size: did not affect
[5]; vs Vehicle
  muscle mass: increased
  subcutaneous fat weight: increased
  total fat weight: increased
  visceral fat weight: increased
  daily feed intake: increased
[6]
  efficacy as a ghrelin receptor agonist: 83.7%

## CCCCCCCCCCn1cc(C(N)(CO)CO)nn1 [KARI101, 2-amino-2-(1-decyl-1H-1,2,3-triazol-4-yl) propane-1,3-diol]
[3]
  delayed gastric emptying: significant improvement
[4]
  colon transit time of feces: significantly reduced
[4]; oral 30 mg/kg
  body weight: no change
  feed intake: increased
[5]
  body weight: did not affect
  cancer size: did not affect
[5]; vs Vehicle
  muscle mass: increased
  subcutaneous fat weight: increased
  total fat weight: increased
  visceral fat weight: increased
  daily feed intake: increased
[5]; oral 10 mg/kg once daily from 9th day, tested 18th day, vs Vehicle
  muscle strength function (Grip test and Rota-rod test): significantly improved
[1]
  EC50: 189 nM
